Source: US20040229219A1 (priority 2003, published 2004)

Experiments:
HIV-1 = details: cited from earlier work
measles virus = details: cited from earlier work

enfuvirtide
concentration range that suppresses HIV-1 infection (HIV-1): nanomolar range

CC[C@H](C)[C@H](NC(=O)[C@H](CC(C)C)NC(=O)[C@H](CC(C)C)NC(=O)[C@H](Cc1c[nH]c2ccccc12)NC(=O)[C@@H](NC(=O)[C@H](Cc1ccc(O)cc1)NC(=O)[C@H](Cc1c[nH]c2ccccc12)NC(=O)[C@@H]1CCCN1C(=O)[C@H](Cc1c[nH]c2ccccc12)NC(=O)[C@H](CCCCN)NC(=O)[C@@H](NC(=O)[C@H](Cc1ccc(O)cc1)NC(=O)[C@H](CCSC)NC(=O)[C@H](CCC(=O)O)NC(=O)[C@H](Cc1ccc(O)cc1)NC(=O)[C@@H](NC(=O)CNC(=O)[C@@H](NC(=O)[C@H](CCC(=O)O)NC(=O)[C@H](CCCCN)NC(=O)[C@H](CC(C)C)NC(=O)[C@H](CC(N)=O)NC(=O)[C@@H](NC(=O)[C@H](Cc1ccc(O)cc1)NC(=O)[C@H](CO)NC(=O)[C@H](CCC(=O)O)NC(=O)[C@H](CC(N)=O)NC(=O)[C@H](CC(C)C)NC(=O)[C@H](CCCCN)NC(=O)[C@H](CCCCN)NC(=O)[C@@H](NC(=O)[C@H](C)NC(=O)[C@H](CC(=O)O)NC(=O)[C@H](CCC(N)=O)NC(=O)[C@@H](NC(=O)[C@@H](N)CCCNC(=N)N)[C@@H](C)CC)[C@@H](C)CC)[C@@H](C)CC)C(C)C)[C@@H](C)O)C(C)C)C(C)C)C(=O)O [SEQ ID NO: 52]
non-specific cytotoxic effects of the peptide on cells (morphology) (L2 cells): normal morphology

carbobenzoxy derivative of phenylalanine-phenylalanine-glycine [z-FFG]
activity against measles virus (measles virus): effective
